How the values were obtained:
Experiment in all cases: KINOMEscan
Format in all cases: binding
Conditions in all cases: read-out: % control activity remaining
ERBB3 = molecular target: T1, ERBB3 (Homo sapiens, UniProt P21860)
T1 construct: purchased Eurofins DiscoverX KINOMEscan

PFTAIRE2 = molecular target: T2, PFTAIRE2 (Homo sapiens, UniProt Q96Q40)
T2 construct: purchased Eurofins DiscoverX KINOMEscan

ABL1-nonphosphorylated = molecular target: T3, ABL1-nonphosphorylated (Homo sapiens, UniProt P00519)
T3 construct: purchased Eurofins DiscoverX KINOMEscan

GRK1 = molecular target: T4, GRK1 (Homo sapiens, UniProt Q15835)
T4 construct: purchased Eurofins DiscoverX KINOMEscan
T4 sequence (Q15835 1-563): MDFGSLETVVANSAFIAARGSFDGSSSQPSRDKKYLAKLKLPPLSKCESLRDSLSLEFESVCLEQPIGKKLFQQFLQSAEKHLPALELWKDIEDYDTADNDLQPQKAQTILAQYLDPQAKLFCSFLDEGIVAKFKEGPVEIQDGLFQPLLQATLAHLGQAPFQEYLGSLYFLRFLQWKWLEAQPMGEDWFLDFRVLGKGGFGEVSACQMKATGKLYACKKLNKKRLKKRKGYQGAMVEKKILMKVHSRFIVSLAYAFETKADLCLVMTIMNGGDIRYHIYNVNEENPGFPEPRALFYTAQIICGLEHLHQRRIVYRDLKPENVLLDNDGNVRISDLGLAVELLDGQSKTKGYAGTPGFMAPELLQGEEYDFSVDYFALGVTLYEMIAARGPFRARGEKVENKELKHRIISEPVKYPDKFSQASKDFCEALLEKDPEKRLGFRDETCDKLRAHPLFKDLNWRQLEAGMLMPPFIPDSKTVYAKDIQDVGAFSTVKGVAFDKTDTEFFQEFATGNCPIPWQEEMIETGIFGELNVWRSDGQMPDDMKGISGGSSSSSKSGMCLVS

EPHB1 = molecular target: T5, EPHB1 (Homo sapiens, UniProt P54762)
T5 construct: purchased Eurofins DiscoverX KINOMEscan
T5 sequence (P54762 18-984): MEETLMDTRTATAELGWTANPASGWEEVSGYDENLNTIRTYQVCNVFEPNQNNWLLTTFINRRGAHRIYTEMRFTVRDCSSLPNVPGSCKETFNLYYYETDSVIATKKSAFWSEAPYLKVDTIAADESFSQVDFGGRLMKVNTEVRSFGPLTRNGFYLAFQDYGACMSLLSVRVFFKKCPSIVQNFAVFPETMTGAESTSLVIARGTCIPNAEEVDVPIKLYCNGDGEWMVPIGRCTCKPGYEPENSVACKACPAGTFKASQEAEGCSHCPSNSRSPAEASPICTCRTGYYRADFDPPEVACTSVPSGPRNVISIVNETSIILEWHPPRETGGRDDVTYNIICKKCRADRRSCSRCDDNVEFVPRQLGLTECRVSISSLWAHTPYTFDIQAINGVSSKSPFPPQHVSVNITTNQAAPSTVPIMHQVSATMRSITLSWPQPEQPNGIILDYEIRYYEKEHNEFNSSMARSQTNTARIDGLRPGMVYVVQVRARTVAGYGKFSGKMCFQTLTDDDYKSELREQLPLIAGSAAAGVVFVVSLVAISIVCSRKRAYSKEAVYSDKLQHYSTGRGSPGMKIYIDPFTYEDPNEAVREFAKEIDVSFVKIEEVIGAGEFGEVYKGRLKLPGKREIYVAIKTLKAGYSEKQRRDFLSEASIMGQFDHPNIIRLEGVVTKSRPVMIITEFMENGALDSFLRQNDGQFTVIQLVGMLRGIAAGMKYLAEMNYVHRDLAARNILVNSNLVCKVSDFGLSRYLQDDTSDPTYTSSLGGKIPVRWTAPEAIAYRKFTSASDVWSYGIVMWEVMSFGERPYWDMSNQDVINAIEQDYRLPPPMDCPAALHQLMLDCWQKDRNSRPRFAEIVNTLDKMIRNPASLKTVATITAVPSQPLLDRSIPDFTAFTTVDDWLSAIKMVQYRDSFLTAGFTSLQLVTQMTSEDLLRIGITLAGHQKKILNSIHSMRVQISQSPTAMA

CDC2L2 = molecular target: T6, CDC2L2 (Homo sapiens, UniProt Q9UQ88)
T6 construct: purchased Eurofins DiscoverX KINOMEscan
T6 sequence (Q9UQ88 1-783): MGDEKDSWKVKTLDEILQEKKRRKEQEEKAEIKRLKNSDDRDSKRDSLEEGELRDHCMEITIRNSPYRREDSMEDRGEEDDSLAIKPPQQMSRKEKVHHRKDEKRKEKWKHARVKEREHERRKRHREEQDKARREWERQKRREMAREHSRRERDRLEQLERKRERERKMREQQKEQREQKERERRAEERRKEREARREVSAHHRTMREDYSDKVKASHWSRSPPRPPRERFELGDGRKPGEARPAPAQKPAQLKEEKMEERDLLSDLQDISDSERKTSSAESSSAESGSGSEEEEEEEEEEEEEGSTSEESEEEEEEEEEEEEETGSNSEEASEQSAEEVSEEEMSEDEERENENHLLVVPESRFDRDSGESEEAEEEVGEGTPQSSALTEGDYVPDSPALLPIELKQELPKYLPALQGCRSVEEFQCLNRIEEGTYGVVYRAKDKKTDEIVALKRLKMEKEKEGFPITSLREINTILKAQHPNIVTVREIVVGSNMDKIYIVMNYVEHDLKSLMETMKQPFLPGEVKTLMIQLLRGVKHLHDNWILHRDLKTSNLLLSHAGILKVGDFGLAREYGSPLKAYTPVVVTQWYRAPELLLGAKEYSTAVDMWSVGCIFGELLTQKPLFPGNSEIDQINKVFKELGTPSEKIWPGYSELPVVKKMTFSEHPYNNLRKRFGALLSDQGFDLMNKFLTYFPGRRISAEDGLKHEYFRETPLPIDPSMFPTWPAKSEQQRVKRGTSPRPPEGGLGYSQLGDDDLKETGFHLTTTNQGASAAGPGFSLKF

CAMK2A = molecular target: T7, CAMK2A (Homo sapiens, UniProt Q9UQM7)
T7 construct: purchased Eurofins DiscoverX KINOMEscan

FGFR4 = molecular target: T8, FGFR4 (Homo sapiens, UniProt P22455)
T8 construct: purchased Eurofins DiscoverX KINOMEscan

BRAF = molecular target: T9, BRAF (Homo sapiens, UniProt P15056)
T9 construct: purchased Eurofins DiscoverX KINOMEscan

PRKR = molecular target: T10, PRKR (Homo sapiens, UniProt P19525)
T10 construct: purchased Eurofins DiscoverX KINOMEscan

[1] = molecular target: T11, JAK1(JH2domain-pseudokinase) (Homo sapiens, UniProt P23458)
T11 construct: JAK1(JH2domain-pseudokinase); purchased Eurofins DiscoverX KINOMEscan

p38-alpha = molecular target: T12, p38-alpha (Homo sapiens, UniProt Q16539)
T12 construct: purchased Eurofins DiscoverX KINOMEscan
T12 sequence (Q16539 whole entry): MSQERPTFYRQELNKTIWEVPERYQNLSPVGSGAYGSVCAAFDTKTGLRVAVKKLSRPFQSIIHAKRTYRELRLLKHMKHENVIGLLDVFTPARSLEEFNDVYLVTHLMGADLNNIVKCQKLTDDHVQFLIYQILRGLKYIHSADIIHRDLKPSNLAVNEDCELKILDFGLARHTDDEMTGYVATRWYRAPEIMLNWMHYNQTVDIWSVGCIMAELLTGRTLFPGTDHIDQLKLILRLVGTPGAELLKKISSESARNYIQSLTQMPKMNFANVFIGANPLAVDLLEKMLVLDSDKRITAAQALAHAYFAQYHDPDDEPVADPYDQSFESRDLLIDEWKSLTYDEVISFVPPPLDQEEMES

T7 sequence (Q9UQM7 whole entry): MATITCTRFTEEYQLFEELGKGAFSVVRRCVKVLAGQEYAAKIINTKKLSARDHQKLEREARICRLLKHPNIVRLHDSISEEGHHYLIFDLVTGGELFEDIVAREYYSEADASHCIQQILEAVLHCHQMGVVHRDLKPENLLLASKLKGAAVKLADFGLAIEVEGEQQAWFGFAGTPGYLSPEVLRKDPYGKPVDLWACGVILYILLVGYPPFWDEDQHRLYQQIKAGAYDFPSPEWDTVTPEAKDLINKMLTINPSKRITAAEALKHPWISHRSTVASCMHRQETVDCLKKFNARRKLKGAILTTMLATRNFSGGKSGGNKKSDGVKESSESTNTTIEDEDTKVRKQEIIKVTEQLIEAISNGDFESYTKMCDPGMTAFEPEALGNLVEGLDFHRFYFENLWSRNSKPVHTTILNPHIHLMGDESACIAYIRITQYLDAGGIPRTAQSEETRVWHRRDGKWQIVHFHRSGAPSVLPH
T9 sequence (P15056 whole entry): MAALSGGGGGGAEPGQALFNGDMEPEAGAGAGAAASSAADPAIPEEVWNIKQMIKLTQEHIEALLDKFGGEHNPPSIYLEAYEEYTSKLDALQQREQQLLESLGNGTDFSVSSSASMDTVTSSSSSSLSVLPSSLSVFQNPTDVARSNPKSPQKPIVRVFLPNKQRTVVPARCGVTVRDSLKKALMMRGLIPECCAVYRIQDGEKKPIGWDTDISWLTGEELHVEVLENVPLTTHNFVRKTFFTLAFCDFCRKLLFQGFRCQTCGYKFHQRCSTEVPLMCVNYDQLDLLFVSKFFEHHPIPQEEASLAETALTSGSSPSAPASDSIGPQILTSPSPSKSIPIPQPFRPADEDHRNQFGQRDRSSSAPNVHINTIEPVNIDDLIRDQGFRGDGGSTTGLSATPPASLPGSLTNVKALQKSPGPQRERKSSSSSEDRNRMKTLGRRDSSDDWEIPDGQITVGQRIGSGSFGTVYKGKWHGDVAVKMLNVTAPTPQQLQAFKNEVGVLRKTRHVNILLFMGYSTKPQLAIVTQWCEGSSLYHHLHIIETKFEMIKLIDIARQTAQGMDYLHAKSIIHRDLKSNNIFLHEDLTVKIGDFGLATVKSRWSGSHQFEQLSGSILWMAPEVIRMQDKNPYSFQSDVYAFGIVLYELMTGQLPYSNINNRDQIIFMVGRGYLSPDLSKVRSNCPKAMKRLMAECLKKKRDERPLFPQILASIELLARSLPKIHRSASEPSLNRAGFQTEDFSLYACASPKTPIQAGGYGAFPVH
T1 sequence (P21860 20-1342): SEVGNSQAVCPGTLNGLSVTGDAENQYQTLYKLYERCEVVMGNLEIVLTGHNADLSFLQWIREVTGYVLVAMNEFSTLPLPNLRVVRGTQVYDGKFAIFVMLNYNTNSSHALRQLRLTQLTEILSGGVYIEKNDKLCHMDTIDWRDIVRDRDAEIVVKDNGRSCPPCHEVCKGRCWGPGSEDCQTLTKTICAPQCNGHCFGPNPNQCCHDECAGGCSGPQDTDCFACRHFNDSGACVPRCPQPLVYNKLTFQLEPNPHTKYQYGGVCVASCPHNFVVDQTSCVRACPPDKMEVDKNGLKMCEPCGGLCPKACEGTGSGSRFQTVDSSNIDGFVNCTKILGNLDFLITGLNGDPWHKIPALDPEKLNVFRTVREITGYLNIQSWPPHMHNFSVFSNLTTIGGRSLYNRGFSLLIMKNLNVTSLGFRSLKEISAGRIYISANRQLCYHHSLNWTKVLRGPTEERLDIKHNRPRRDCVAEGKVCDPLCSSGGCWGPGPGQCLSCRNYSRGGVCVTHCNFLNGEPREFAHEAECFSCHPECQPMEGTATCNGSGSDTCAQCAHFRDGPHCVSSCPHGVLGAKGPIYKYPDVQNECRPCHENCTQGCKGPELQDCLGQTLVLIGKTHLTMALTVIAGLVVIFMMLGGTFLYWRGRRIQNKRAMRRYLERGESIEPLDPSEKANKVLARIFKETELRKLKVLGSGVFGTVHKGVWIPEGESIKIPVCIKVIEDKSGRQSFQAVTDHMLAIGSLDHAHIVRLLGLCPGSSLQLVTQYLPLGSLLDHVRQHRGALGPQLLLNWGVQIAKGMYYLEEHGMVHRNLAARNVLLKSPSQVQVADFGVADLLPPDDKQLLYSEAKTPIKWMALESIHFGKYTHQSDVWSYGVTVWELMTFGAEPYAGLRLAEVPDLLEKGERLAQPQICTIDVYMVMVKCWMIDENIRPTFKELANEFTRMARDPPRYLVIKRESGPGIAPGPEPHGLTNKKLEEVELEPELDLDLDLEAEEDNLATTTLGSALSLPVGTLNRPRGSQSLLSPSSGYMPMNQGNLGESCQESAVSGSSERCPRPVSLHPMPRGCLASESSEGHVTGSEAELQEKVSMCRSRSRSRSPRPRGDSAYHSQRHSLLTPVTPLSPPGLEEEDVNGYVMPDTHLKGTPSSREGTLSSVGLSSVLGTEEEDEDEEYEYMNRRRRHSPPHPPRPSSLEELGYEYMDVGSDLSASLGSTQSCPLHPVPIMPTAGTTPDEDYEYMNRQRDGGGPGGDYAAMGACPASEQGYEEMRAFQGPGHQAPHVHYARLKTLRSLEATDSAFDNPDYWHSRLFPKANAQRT
T10 sequence (P19525 whole entry): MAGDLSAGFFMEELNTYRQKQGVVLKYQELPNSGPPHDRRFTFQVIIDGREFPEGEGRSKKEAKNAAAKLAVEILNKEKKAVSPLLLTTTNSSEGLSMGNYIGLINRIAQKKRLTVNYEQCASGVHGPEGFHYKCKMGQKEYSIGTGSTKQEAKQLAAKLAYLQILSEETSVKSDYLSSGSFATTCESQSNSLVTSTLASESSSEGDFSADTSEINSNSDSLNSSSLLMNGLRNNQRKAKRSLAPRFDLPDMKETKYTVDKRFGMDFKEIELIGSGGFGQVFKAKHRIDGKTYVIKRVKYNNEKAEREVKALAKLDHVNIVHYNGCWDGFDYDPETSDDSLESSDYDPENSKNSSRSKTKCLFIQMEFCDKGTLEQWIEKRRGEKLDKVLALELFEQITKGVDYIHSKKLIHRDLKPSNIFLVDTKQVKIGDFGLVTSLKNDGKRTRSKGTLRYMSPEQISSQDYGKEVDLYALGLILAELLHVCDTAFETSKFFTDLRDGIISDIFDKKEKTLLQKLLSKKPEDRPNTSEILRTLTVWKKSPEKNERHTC
T3 sequence (P00519 whole entry): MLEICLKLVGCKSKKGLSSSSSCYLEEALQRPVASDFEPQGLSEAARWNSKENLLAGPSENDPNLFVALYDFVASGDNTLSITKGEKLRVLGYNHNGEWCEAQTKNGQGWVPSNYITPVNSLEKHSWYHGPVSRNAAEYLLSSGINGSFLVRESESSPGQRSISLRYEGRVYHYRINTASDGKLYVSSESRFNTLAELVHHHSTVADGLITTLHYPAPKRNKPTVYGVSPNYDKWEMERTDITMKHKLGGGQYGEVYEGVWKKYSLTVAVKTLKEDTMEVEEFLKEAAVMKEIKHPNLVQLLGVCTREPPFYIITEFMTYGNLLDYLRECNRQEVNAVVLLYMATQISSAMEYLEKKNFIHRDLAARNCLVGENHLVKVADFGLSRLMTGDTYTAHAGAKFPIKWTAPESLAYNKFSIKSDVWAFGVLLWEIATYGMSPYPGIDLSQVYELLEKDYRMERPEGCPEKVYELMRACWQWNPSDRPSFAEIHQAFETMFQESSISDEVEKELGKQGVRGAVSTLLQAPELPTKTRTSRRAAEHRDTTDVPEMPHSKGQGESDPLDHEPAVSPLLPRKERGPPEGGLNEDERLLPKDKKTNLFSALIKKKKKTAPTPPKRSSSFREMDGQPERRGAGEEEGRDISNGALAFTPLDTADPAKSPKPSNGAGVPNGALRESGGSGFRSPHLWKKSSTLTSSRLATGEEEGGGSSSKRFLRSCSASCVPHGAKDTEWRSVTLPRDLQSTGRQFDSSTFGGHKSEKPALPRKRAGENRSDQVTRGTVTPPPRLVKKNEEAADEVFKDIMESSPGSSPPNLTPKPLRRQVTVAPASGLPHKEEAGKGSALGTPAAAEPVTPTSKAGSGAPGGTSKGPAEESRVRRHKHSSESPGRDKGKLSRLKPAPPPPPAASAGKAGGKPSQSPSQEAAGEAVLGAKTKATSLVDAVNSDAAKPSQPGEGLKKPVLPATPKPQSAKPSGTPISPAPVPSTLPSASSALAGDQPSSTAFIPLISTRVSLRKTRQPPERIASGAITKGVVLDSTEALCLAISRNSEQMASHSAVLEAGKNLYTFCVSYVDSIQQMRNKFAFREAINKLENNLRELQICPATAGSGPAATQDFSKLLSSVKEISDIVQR
T11 sequence (P23458 583-855 limits assumed): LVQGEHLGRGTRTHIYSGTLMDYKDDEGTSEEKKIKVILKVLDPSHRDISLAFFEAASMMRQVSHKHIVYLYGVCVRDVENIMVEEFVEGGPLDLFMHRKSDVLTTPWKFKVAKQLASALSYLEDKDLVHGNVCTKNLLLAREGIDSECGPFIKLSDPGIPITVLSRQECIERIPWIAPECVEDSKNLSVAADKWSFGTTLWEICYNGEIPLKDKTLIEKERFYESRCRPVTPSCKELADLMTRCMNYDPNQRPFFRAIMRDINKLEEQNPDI

Row | SMILES | remaining binding at 1 µM (ERBB3) [%] | remaining binding at 1 µM (PFTAIRE2) [%] | remaining binding at 1 µM (ABL1-nonphosphorylated) [%] | remaining binding at 1 µM (GRK1) [%] | remaining binding at 1 µM (EPHB1) [%] | remaining binding at 1 µM (CDC2L2) [%] | remaining binding at 1 µM (CAMK2A) [%] | remaining binding at 1 µM (FGFR4) [%] | remaining binding at 1 µM (BRAF) [%] | remaining binding at 1 µM (PRKR) [%] | remaining binding at 1 µM [1] [%] | remaining binding at 1 µM (p38-alpha) [%]
1 | Clc1cc(NCC2CC2)c2ncc(-c3ccc4[nH]ncc4c3)n2n1 [compound 2, 6-Chloro-N-(cyclopropylmethyl)-3-(1H-indazol-5-yl)imidazo[1,2-b]pyridazin-8-amine] | 96 | 100 | 76 | 100 | 100 | 100 | 100 | 94 | 98 | 97 | 93 | 100
2 | O=C(CN1CCOCC1)N[C@H]1CC[C@H](Nc2cc(Cl)nn3c(-c4ccc5[nH]ncc5c4)cnc23)CC1 [compound 26] | 99 | 40 | 44 | 80 | 89 | 99 | 47 | 99 | 98 | 97 | 100 | 99
3 | CN1CCC(CNc2cc(Cl)nn3c(-c4cc5nc(Nc6ccccc6)[nH]c5cc4F)cnc23)CC1 [compound 31, 6-Chloro-3-(6-fluoro-2-(phenylamino)-1H-benzo[d]imidazol-5-yl)-N-((1-methylpiperidin-4-yl)methyl)imidazo[1,2-b]pyridazin-8-amine] | 71 | 91 | 58 | 82 | 84 | 90 | 99 | 98 | 96 | 81 | 82 | 95

Reference: article PMC6437697 (Journal of Medicinal Chemistry, 2019)
